Test results reported in ChEMBL document CHEMBL3727356, “Therapeutic compounds and compositions” (2014).

Experiments:
Pyruvate kinase PKLR [1] = target: T1, Pyruvate kinase PKLR (Homo sapiens, UniProt P30613); assay: Activation of wild type PKR (unknown origin) by cell based assay
Pyruvate kinase PKLR [2] = target: Pyruvate kinase PKLR (Homo sapiens, UniProt P30613, R510Q); assay: Activation of PKR R510Q mutant (unknown origin) incubated for 60 mins in presence of ADP, PEP and NADH by Spectraax microplate reader based assay
Pyruvate kinase PKLR [3] = target: T1, Pyruvate kinase PKLR; assay: Activation of wild type PKR (unknown origin) incubated for 60 mins in presence of ADP, PEP and NADH by Spectraax microplate reader based assay
Pyruvate kinase PKLR [4] = target: Pyruvate kinase PKLR (Homo sapiens, UniProt P30613, R532W); assay: Activation of PKR R532W mutant (unknown origin) incubated for 60 mins in presence of ADP, PEP and NADH by Spectraax microplate reader based assay
Pyruvate kinase PKLR (Homo sapiens, UniProt P30613, R532W), sequence (P30613 whole entry R532W): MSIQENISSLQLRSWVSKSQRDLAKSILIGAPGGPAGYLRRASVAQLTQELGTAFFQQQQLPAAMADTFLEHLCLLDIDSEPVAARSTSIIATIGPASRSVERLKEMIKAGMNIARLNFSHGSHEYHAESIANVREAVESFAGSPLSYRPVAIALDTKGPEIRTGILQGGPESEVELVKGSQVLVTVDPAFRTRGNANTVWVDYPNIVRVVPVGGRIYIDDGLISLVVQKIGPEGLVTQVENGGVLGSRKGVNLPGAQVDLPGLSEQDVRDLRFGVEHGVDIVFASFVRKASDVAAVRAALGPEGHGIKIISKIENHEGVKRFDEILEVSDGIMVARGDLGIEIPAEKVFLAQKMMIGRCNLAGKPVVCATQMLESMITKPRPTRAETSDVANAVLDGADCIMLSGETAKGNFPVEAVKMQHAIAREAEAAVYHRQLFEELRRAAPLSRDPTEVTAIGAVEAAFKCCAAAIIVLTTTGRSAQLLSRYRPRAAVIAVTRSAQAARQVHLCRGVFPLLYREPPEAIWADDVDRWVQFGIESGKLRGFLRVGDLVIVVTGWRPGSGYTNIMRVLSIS

Pyruvate kinase PKLR (Homo sapiens, UniProt P30613, R510Q), sequence (P30613 whole entry R510Q): as the sequence (P30613 whole entry R532W) above, with R510Q, W532R counted along it
T1 sequence (P30613 whole entry): as the sequence (P30613 whole entry R532W) above, with W532R counted along it

Row | SMILES | AC50 (Pyruvate kinase PKLR [1]) [nM] | AC50 (Pyruvate kinase PKLR [2]) [nM] | AC50 (Pyruvate kinase PKLR [3]) [nM] | AC50 (Pyruvate kinase PKLR [4]) [nM]
1 | O=C(c1ccc(NS(=O)(=O)c2cccc3cccnc23)cc1)N1CCC(O)(c2cccc(F)c2F)CC1 | < 100 | < 100 | < 100 | < 100
2 | O=C(c1ccc(NS(=O)(=O)c2ccc3nsnc3c2)cc1)N1CCC(O)(Cc2ccccc2)CC1 | ≤ 1000 | ≤ 1000 | < 100 | < 100
3 | O=C(c1ccc(NS(=O)(=O)c2cccc3cccnc23)cc1)N1CCC(O)(c2ccccc2C(F)(F)F)CC1 | < 100 | < 100 | < 100 | < 100
4 | Nc1nc2c(S(=O)(=O)Nc3ccc(C(=O)N4CCC(O)(c5ccccc5Cl)CC4)cc3)cccc2s1 | < 100 | < 100 | < 100 | < 100
5 | O=C(c1ccc(NS(=O)(=O)c2cccc3cccnc23)cc1)N1CCC(O)(Cc2c(F)cccc2F)CC1 | < 100 | < 100 | < 100 | < 100
6 | Nc1nc2c(S(=O)(=O)Nc3ccc(C(=O)N4CCC(O)(CCCC(F)(F)F)CC4)cc3)cccc2s1 | < 100 | < 100 | < 100 | < 100
7 | O=C(c1ccc(NS(=O)(=O)c2cccc3nccnc23)cc1)N1CCC(O)(CCC=C(F)F)CC1 | < 100 | < 100 | < 100 | < 100
8 | CC(CC1(O)CCN(C(=O)c2ccc(NS(=O)(=O)c3cccc4sc(N)nc34)cc2)CC1)C(F)(F)F (centres undefined) | < 100 | < 100 | < 100 | < 100
9 | O=C(c1ccc(NS(=O)(=O)c2cccc3cccnc23)cc1)N1CCC(O)(c2ccc(F)c(Br)n2)CC1 | < 100 | < 100 | < 100 | < 100
10 | O=C(c1ccc(NS(=O)(=O)c2cccc3cccnc23)cc1)N1CCC(O)(CC2CCC2)CC1 | < 100 | < 100 | < 100 | < 100
11 | CNc1nc2c(S(=O)(=O)Nc3ccc(C(=O)N4CCC(O)(CC(C)C)CC4)cc3)cccc2s1 | < 100 | < 100 | < 100 | < 100
12 | CC(C)CC1(O)CCN(C(=O)c2ccc(NS(=O)(=O)c3cccc4sc(N)nc34)cc2)CC1 | < 100 | < 100 | < 100 | < 100
13 | O=C(c1ccc(NS(=O)(=O)c2cccc3cccnc23)cc1OC(F)(F)F)N1CCC(O)(c2ccccc2Cl)CC1 | < 100 | < 100 | < 100 | < 100
14 | Cc1cc(C(=O)N2CCC(O)(c3ccccc3Cl)CC2)ccc1NS(=O)(=O)c1cccc2nccnc12 | < 100 | < 100 | < 100 | < 100
15 | CC(C)CC1(C=O)CCN(C(=O)c2ccc(NS(=O)(=O)c3cccc4cccnc34)cc2)CC1 | < 100 | < 100 | < 100 | < 100
16 | CC(C)CC1(O)CCN(C(=O)c2ccc(NS(=O)(=O)c3cccc4c(O)ncnc34)cc2)CC1 | < 100 | < 100 | < 100 | < 100
17 | CC(C)CC1(CO)CCN(C(=O)c2ccc(NS(=O)(=O)c3cccc4cccnc34)cc2)CC1 | < 100 | < 100 | < 100 | < 100
18 | CC(C)CC1(O)CCN(C(=O)c2ccc(NS(=O)(=O)c3cccc4cccnc34)cc2)CC1 | < 100 | < 100 | < 100 | < 100
19 | Nc1nc2c(S(=O)(=O)Nc3ccc(C(=O)N4CCC(O)(c5cccc(F)c5F)CC4)cc3)cccc2s1 | < 100 | < 100 | < 100 | < 100
20 | O=C(c1ccc(NS(=O)(=O)c2cccc3scnc23)cc1)N1CCC(O)(CCCC(F)F)CC1 | < 100 | < 100 | < 100 | < 100
21 | CC(C)CCC1(O)CCN(C(=O)c2ccc(NS(=O)(=O)c3cccc4scnc34)cc2)CC1 | < 100 | < 100 | < 100 | < 100
22 | C=C(CC1(O)CCN(C(=O)c2ccc(NS(=O)(=O)c3cccc4scnc34)cc2)CC1)C(F)(F)F | < 100 | < 100 | < 100 | < 100
23 | Cc1cc(C(=O)N2CCC(O)(c3cccc(Cl)c3)CC2)ccc1NS(=O)(=O)c1cccc2cccnc12 | < 100 | ≤ 1000 | < 100 | < 100
24 | O=C(c1ccc(NS(=O)(=O)c2cccc3c2OCCC3)cc1)N1CCC(O)(c2ccccc2Cl)CC1 | < 100 | < 100 | < 100 | < 100
25 | CC1(CC2(O)CCN(C(=O)c3ccc(NS(=O)(=O)c4cccc5cccnc45)cc3)CC2)CC1 | < 100 | < 100 | < 100 | < 100
26 | CC(C)CC1(O)CCN(C(=O)c2ccc(NS(=O)(=O)c3cc(F)cc4sc(N)nc34)cc2)CC1 | < 100 | < 100 | < 100 | < 100

Row | SMILES | AC50 (Pyruvate kinase PKLR [1]) [nM] | AC50 (Pyruvate kinase PKLR [2]) [nM] | AC50 (Pyruvate kinase PKLR [3]) [nM] | AC50 (Pyruvate kinase PKLR [4]) [nM]
27 | CC(C)CC1(O)CCN(C(=O)c2ccc(NS(=O)(=O)c3cccc4ccc(N)nc34)cc2)CC1 | < 100 | < 100 | < 100 | < 100
28 | O=C(c1ccc(NS(=O)(=O)c2cccc3scnc23)cc1)N1CCC(O)(Cc2ccccc2C(F)(F)F)CC1 | < 100 | < 100 | < 100 | < 100
29 | CC(C)(C)CC1(O)CCN(C(=O)c2ccc(NS(=O)(=O)c3cccc4nccnc34)cc2)CC1 | < 100 | < 100 | < 100 | < 100
30 | O=C(c1ccc(NS(=O)(=O)c2cccc3cccnc23)cc1)N1CCC(O)(c2cccc(F)c2Cl)CC1 | < 100 | < 100 | < 100 | < 100
31 | CC(C)CC1(O)CCN(C(=O)c2ccc(NS(=O)(=O)c3cccc4nccnc34)cc2)CC1 | < 100 | < 100 | < 100 | < 100
32 | CC(C)(C)CC1(O)CCN(C(=O)c2ccc(NS(=O)(=O)c3ccc(F)c4cccnc34)cc2)CC1 | < 100 | < 100 | < 100 | < 100
33 | O=C(c1ccc(NS(=O)(=O)c2cccc3cc(F)cnc23)cc1)N1CCC(O)(Cc2ccccc2)CC1 | < 100 | < 100 | < 100 | < 100
34 | O=C(c1ccc(NS(=O)(=O)c2cccc3cccnc23)cc1)N1CCC(O)(Cc2ccccc2)CC1 | < 100 | < 100 | < 100 | < 100
35 | O=C(c1ccc(NS(=O)(=O)c2cccc3cccnc23)cc1)N1CCC(O)(CC2CC2)CC1 | < 100 | < 100 | < 100 | < 100
36 | Cc1cc(C(=O)N2CCC(O)(Cc3ccccc3)CC2)ccc1NS(=O)(=O)c1cccc2cccnc12 | < 100 | < 100 | < 100 | < 100
37 | O=C(c1ccc(NS(=O)(=O)c2cccc3cccnc23)cc1OC(F)F)N1CCC(O)(c2ccccc2Cl)CC1 | < 100 | < 100 | < 100 | < 100
38 | O=C(c1ccc(NS(=O)(=O)c2ccc(F)c3nccnc23)cc1)N1CCC(O)(c2cccc(F)c2F)CC1 | ≥ 1010 | ≤ 1000 | < 100 | < 100
39 | O=C(c1ccc(NS(=O)(=O)c2cccc3nccnc23)cc1)N1CCC(O)(CCCC(F)(F)F)CC1 | < 100 | < 100 | < 100 | < 100
40 | Cc1nc(F)ccc1C1(O)CCN(C(=O)c2ccc(NS(=O)(=O)c3cccc4cccnc34)cc2)CC1 | < 100 | < 100 | < 100 | < 100
41 | O=C(c1ccc(NS(=O)(=O)c2cccc3cccnc23)cc1)N1CCC(O)(c2ccccc2Cl)CC1 | < 100 | < 100 | < 100 | < 100
42 | CCc1ccccc1C1(O)CCN(C(=O)c2ccc(NS(=O)(=O)c3cccc4cccnc34)cc2)CC1 | < 100 | < 100 | < 100 | < 100
43 | CNc1nc2c(S(=O)(=O)Nc3ccc(C(=O)N4CCC(O)(CC(C)C)CC4)cc3)cc(Cl)cc2s1 | < 100 | < 100 | < 100 | < 100
44 | CC(CC1(O)CCN(C(=O)c2ccc(NS(=O)(=O)c3cccc4scnc34)cc2)CC1)C(F)(F)F (centres undefined) | < 100 | < 100 | < 100 | < 100
45 | CCCCC1(O)CCN(C(=O)c2ccc(NS(=O)(=O)c3cccc4cccnc34)cc2)CC1 | < 100 | < 100 | < 100 | < 100
46 | Cc1cc(F)ccc1C1(O)CCN(C(=O)c2ccc(NS(=O)(=O)c3cccc4cccnc34)cc2)CC1 | < 100 | < 100 | < 100 | < 100
47 | CC(C)(C)CC1(O)CCN(C(=O)c2ccc(NS(=O)(=O)c3cccc4scnc34)cc2)CC1 | < 100 | < 100 | < 100 | < 100
48 | O=C(c1ccc(NS(=O)(=O)c2cccc3c(O)ncnc23)cc1)N1CCC(O)(CCCC(F)(F)F)CC1 | < 100 | < 100 | < 100 | < 100
49 | O=C(c1ccc(NS(=O)(=O)c2cccc3cccnc23)c(F)c1)N1CCC(O)(c2ccccc2Cl)CC1 | < 100 | < 100 | < 100 | < 100
50 | Nc1nc2c(S(=O)(=O)Nc3ccc(C(=O)N4CCC(O)(c5ccccc5Cl)CC4)cc3)cc(F)cc2s1 | < 100 | < 100 | < 100 | < 100
51 | CC(C)CC1(O)CCN(C(=O)c2ccc(NS(=O)(=O)c3cccc4scnc34)cc2)CC1 | < 100 | < 100 | < 100 | < 100
